From patent publication US9682994B2, “Inhibitors of retroviral replication” (The Scripps Research Institute, priority 2011, dated 2017) come the findings set out here.

For experiment [1], the system named is HIV-1 promoter. Kind of experiment: Elongation from HIV-1 promoter by qRT-PCR in chronically infected HeLa cells. It counts as cell-based. The settings on record: dose-dependent. The text has this: FIG. 3B: HIV-1 elongation from HIV-1 promoter measured by qPCR. […] All messages were normalized relative to GAPDH mRNA. The 100% value was arbitrarily assigned to the amounts of viral mRNA generated in the absence of compound, measured at 100 bp from start site. Right panel: Plotting of data obtained in left panel, setting each data point obtained with the 100 bp primer set at 100% and comparing to results obtained with 5.3 kb primer set.
For these studies, the amounts of viral RNA present at different distances from the promoter were measured using sets of oligonucleotide primer pairs specific to quantify transcripts made up to 100 bp, 5.3 kb or 8.5 kb from the transcription start site (FIG. 3A). It was observed that even in the absence of drug, elongation from the HIV-1 viral promoter is not very efficient. In the presence of DMSO alone only 30% of 5.3 kb long transcripts and 6% of 8.5 kb long transcripts were produced (FIG. 3B—left panel).
(In general: Real-time PCR tracks product formation cycle by cycle.)

Experiment [2] deals with RNAPII occupancy of the HIV promoter and ORF. Kind of experiment: ChIP of RNAPII on HIV promoter and ORF. It counts as cell-based, HIV-1. The settings on record: 4 days treatment. As to the method: FIG. 3C: ChIP assay of the HIV promoter. […] Lysates were sonicated, the crosslinks were reversed and RNAPII was immunoprecipitated. DNA was measured by qPCR using the indicated set of primers. ChIP values are represented as percentages of input. Error bars, ±s.d. (n=3). *P<0.05; **P<0.01 (unpaired t-test).
Cells were fixed with formaldehyde (1% [vol/vol]) to crosslink the chromatin and incubated at room temperature for 10 min. Crosslinking was arrested by adding glycine[0.125 M] and incubated for an additional 5 min at room temperature. Cells were then pelleted, washed twice with phosphate-buffered saline, ressuspended in SDS lysis buffer, and incubated 10 min on ice. All solutions used prior to the collection of chromatin-antibody complexes contained protease and phosphatase inhibitor cocktail. Cell lysates were sonicated 4 times for 10 s bursts on ice. The sheared chromatin was diluted by the addition of 3 volumes of ChIP dilution buffer (0.01% SDS, 1.1% Triton X-100, 1.2 mM EDTA, 16.7 mM Tris-HCl (pH 8.1), 167 mM NaCl) and pre-cleared with salmon sperm DNA-protein A/G agarose slurry for 2 h. […] The relative proportions of co-immunoprecipitated DNA fragments were determined on the basis of the threshold cycle (CT) for each PCR product. […]

Experiment [3] relates to HIV-1 pNL43. The experiment in a line: Viral rebound after termination of treatment, chronically infected HeLa-CD4 cells. The settings on record: up to 27 days after stop. It counts as cell-based. The text has this: Total RNA was extracted and reverse transcribed with random hexamer primers. The viral mRNA copies were quantified by qPCR and normalized with GAPDH mRNA. Viral mRNA output from untreated cells was assigned as 1. RNA extracts were used in the qPCR as negative control for the presence of genomic DNA contamination, 0.1% of the amplification of the cDNA samples is due to genomic DNA. The error represents a covariance of less than 5%.
FIG. 4B: Same as in FIG. 4A however the treatment was stopped for 27 days before harvest of the cells.

Consider `CN(C)[C@H]1C[C@@]23CC[C@@]4(O2)C(=CC[C@]2(C)C(c5ccc6ccncc6c5)=CC[C@H]24)C=C3[C@@H](O)[C@@H]1O` [dCA, didehydro-Cortistatin A], for which the “production of longer viral RNA species (elongation)” value in experiment [1] is “further decreased the production of longer viral RNA species”. Also, the “association of RNAPII with the HIV promoter and ORF” value in experiment [2] is “significantly decreased”. Further, the “virus rebound after treatment stopped” value in experiment [3] is “No virus rebound”.
